Measurements taken from patent US20190203240A1, “METHODS FOR THE PRODUCTION OF RHAMNOSYLATED FLAVONOIDS” (Universitaet Hamburg, priority 2016, published 2019).
Where “and” joins values, the source holds several entries; their conditions need not be identical. Identical values can stand only once.

What was measured:
NF-κB = NF-κB activity in NIH3T3-KBF-Luc cells stimulated with TNFα (luciferase); assay type: cell-based; conditions: +30 ng/ml TNFα
Experimental: NIH3T3-KBF-Luc cells were stably transfected with the KBF-Luc plasmid (Sancho (2003) Mol Pharmacol 63:429-438), which contains three copies of NF-κB binding site (from major histocompatibility complex promoter), fused to a minimal simian virus 40 promoter driving the luciferase gene. Cells (1×10^4 for NIH3T3-KBF-Luc) were seeded the day before the assay on 96-well plate. Then the cells were treated with the test substances for 15 min and then stimulated with 30 ng/ml of TNFα. After 6 h, the cells were washed twice with PBS and lysed in 50 μl lysis buffer containing 25 mM Tris-phosphate (pH 7.8), 8 mM MgCl2, 1 mM DTT, 1% Triton X-100, and 7% glycerol during 15 min at RT in a horizontal shaker. Luciferase activity was measured using a GloMax 96 microplate luminometer (Promega) following the instructions of the luciferase assay kit (Promega, Madison, Wis., USA). […] The experiments for each concentration of the test items were done in triplicate wells.

[1] = test system: hydrogen peroxide (DHR) in NHEK cells; test: Protection against UV-induced H2O2 stress in NHEK (DHR probe, flow cytometry); assay type: cell-based, human; conditions: 180 mJ/cm^2 UVB (2839 mJ/cm^2 UVA), 100 μM
Experimental: Pre-incubated NHEK were incubated with the test compound for 24 h. Then the specific fluorescence probe for the measurement of hydrogen peroxide (DHR) or lipid peroxides (C11-fluor) was added and incubated for 45 min. Irradiation occurred with in H2O2 determination UVB at 180 mJ/cm^2 (+UVA at 2839 mJ/cm^2) or UVB at 240 mJ/cm^2 (+UVA at 3538 mJ/cm^2) in lipid peroxide, respectively, using a SOL500 Sun Simulator lamp. After irradiation the cells were post-incubated for 30 min before flow-cytometry analysis.

[2] = test system: normal human epidermal keratinocytes (NHEK); test: Cytotoxicity on NHEK monolayer (MTT reduction assay and morphological observation); assay type: cell-based; conditions: MTT; for Viability (%): single values, listed as Nar-5-Rha
Experimental: To determine the cytotoxicity of flavonoid-5-O-α-L-rhamnosides tests were performed versus their aglycon derivatives in cell monolayer cultures. For this purpose concentrations ranging from 1 μM to 250 μM were chosen. The viability of normal human epidermal keratinocytes (NHEK) was twice evaluated by a MTT reduction assay and morphological observation with a microscope. NHEK were grown at 37° C. and 5% CO2 aeration in Keratinocyte-SFM medium supplemented with epidermal growth factor (EGF) at 0.25 ng/mL, pituitary extract (PE) at 25 μg/mL and gentamycin (25 μg/mL) for 24 h and were used at the 3rd passage. For cytotoxicity testing, pre-incubated NHEK were given fresh culture medium containing a specific concentration of test compound and incubated for 24 h. After a medium change at same test concentration cells were incubated a further 24 h until viability was determined. Test results are given in Table B2 and illustrated in FIG. 10.

SMILES: C[C@@H]1O[C@@H](Oc2cc(O)cc3c2C(=O)CC(c2ccc(O)cc2)O3)[C@H](O)[C@H](O)[C@H]1O (mixture of isomers) [NR1, Naringenin-5-O-α-L-rhamnoside]
- % Activation (NF-κB; TNFα = 100%) (NF-κB; 10 μM): 114.0%
- RLU 1 (NF-κB; 10 μM): 134540 RLU
- RLU 2 (NF-κB; 10 μM): 126580 RLU
- RLU 3 (NF-κB; 10 μM): 130240 RLU
- RLU MEAN (NF-κB; 10 μM): 130453 RLU
- RLU specific (NF-κB; 10 μM): 93190 RLU
- % Activation (NF-κB; TNFα = 100%) (NF-κB; 25 μM): 136.5%
- RLU 1 (NF-κB; 25 μM): 151080 RLU
- RLU 2 (NF-κB; 25 μM): 151840 RLU
- RLU 3 (NF-κB; 25 μM): 143870 RLU
- RLU MEAN (NF-κB; 25 μM): 148930 RLU
- RLU specific (NF-κB; 25 μM): 111667 RLU
- H2O2 % irradiated control [1]: 136%
- H2O2 (AU) Mean [1]: 2516.5 AU
- H2O2 Protection % [1]: −44%
- H2O2 (AU) (DHR GMFI) ([1]; single values): 2531 AU and 2502 AU
- Viability (%) Mean ([2]; 1 μM): 101%
- Viability (%) ([2]; 1 μM): 91% and 111%
- Viability (%) Mean ([2]; 2.5 μM): 93%
- Viability (%) ([2]; 2.5 μM): 92% and 93%
- Viability (%) Mean ([2]; 5 μM): 86%
- Viability (%) ([2]; 5 μM): 85% and 88%
- Viability (%) Mean ([2]; 10 μM): 97%
- Viability (%) ([2]; 10 μM): 94% and 100%
- Viability (%) Mean ([2]; 25 μM): 95%
- Viability (%) ([2]; 25 μM): 92% and 98%
- Viability (%) Mean ([2]; 50 μM): 84%
- Viability (%) ([2]; 50 μM): 78% and 91%
- Viability (%) Mean ([2]; 100 μM): 86%
- Viability (%) ([2]; 100 μM): 82% and 90%
- Viability (%) Mean ([2]; 250 μM): 83%
- Viability (%) ([2]; 250 μM): 79% and 87%
